Assay results: PMC11207571, “Applicability of MDR1 Overexpressing Abcb1KO-MDCKII Cell Lines for Investigating In Vitro Species Differences and Brain Penetration Prediction” (Pharmaceutics, 2024)

target: T1, cynomolgus monkey Mdr1 (Macaca fascicularis, UniProt Q8HZQ6); test: cell-based; conditions: not given
T1 sequence (Q8HZQ6 1-1283): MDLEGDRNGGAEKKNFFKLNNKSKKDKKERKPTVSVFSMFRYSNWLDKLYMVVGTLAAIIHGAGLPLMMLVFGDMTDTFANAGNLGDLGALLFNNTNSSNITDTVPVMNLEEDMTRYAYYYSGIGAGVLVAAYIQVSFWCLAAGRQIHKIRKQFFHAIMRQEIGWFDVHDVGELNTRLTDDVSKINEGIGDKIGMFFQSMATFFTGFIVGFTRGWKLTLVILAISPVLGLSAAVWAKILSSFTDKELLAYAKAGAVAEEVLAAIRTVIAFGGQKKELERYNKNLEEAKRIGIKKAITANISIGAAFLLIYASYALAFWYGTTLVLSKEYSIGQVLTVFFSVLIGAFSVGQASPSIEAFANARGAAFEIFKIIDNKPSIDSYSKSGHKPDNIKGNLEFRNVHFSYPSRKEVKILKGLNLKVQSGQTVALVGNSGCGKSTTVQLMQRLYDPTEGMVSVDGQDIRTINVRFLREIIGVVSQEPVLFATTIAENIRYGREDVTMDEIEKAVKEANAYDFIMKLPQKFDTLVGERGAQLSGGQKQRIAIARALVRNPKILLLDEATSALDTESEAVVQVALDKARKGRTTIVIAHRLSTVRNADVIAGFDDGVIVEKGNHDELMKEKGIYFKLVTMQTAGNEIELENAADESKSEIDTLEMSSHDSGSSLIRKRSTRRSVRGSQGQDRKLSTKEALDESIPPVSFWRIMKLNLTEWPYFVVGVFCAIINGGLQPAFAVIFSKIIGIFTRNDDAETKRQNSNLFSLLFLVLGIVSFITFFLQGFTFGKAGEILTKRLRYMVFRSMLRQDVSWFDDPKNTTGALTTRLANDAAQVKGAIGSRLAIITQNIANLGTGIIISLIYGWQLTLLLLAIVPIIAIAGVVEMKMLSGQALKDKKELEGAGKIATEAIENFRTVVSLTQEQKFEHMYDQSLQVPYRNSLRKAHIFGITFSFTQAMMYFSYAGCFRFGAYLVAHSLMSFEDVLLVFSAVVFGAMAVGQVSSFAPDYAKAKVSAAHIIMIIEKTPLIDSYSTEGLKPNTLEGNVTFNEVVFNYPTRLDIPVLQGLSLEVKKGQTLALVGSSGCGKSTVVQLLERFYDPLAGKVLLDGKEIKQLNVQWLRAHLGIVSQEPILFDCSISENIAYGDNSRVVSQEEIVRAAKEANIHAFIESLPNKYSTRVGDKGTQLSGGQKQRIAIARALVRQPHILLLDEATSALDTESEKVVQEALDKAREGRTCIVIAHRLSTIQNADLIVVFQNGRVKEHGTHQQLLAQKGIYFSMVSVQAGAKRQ

SMILES	IC50 [µM]
COC(=O)C1=C(C)NC(C)=C(C(=O)OC(C)C)C1c1cccc2nonc12 (stereo not shown) [Isradipine]	10.6 ± 4.73
COCC(=O)O[C@]1(CCN(C)CCCc2nc3ccccc3[nH]2)CCc2cc(F)ccc2[C@@H]1C(C)C [Mibefradil]	4.84 ± 1.82
CC(C)(C)NC(=O)[C@@H]1C[C@@H]2CCCC[C@@H]2CN1C[C@@H](O)[C@H](Cc1ccccc1)NC(=O)[C@H](CC(N)=O)NC(=O)c1ccc2ccccc2n1 [Saquinavir]	12.3 ± 5.44
COc1ccccc1OCCNCC(O)COc1cccc2[nH]c3ccccc3c12 (stereo not shown) [Carvedilol]	1.55 ± 0.59
COc1cc2c(cc1OC)CN(CCc1ccc(NC(=O)c3cccc4c(=O)c5cccc(OC)c5[nH]c34)cc1)CC2 [Elacridar]	0.09 ± 0.03
O[C@@H](COc1cccc2ncccc12)CN1CCN([C@@H]2c3ccccc3[C@@H]3[C@H](c4ccccc42)C3(F)F)CC1 [Zosuquidar]	0.05 ± 0.02
CCOC(=O)C1=C(C)NC(C)=C(C(=O)OC)C1c1cccc(Cl)c1Cl (stereo not shown) [Felodipine]	12.4 ± 5.74

target: T2, human MDR1 (Homo sapiens, UniProt P08183); test: Bidirectional transport assay, efflux ratio in Abcb1KO-MDCKII hMDR1 cells; conditions: human, MDCK-MDR1, pH 7.4
Experimental: (§1) Eluent A consisted of 0.1% formic acid in water, eluent B consisted of 0.1% formic acid in acetonitrile. Then, 10 µL samples were injected into the HPLC-MS/MS system. Mass spectrometric detection was performed in SRM mode, and ion transitions for each analyte were optimized during method development. Samples were analyzed in pools, with each pool containing three to four analytes.

T2 sequence (P08183 whole entry): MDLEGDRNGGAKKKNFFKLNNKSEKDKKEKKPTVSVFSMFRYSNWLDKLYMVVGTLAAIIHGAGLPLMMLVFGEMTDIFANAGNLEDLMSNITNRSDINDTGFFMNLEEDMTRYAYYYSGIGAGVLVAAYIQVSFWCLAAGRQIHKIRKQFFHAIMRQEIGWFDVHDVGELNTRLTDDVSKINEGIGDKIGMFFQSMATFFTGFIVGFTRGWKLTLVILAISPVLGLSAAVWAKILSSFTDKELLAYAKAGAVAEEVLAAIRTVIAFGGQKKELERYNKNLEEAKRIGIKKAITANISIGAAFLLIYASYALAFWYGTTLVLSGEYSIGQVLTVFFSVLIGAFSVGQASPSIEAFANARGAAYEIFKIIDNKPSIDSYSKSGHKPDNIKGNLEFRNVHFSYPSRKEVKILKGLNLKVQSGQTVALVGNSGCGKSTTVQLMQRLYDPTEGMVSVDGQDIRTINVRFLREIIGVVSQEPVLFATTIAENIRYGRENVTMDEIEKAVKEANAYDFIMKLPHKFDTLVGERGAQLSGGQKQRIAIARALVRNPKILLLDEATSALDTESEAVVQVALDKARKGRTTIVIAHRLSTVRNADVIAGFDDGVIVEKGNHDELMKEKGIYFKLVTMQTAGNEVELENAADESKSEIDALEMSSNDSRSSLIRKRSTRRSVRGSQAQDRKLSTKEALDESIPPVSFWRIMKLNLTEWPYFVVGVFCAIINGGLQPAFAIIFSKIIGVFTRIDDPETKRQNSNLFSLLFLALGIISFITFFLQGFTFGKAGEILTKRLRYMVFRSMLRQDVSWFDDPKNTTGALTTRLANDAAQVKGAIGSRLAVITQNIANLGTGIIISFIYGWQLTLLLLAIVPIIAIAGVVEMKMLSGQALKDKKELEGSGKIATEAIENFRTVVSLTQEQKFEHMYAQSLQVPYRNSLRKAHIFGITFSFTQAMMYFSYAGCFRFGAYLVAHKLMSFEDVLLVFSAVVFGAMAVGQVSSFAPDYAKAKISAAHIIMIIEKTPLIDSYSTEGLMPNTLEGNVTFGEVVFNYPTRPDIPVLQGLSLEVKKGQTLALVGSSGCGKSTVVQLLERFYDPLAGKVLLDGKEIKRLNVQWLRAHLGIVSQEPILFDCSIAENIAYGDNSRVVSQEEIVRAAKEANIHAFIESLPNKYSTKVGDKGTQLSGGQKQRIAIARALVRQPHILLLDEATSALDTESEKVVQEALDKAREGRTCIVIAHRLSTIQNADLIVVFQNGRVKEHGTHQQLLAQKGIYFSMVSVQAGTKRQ

SMILES	efflux ratio at 120 min, 1 µM
COc1ccccc1OCCNCC(O)COc1cccc2[nH]c3ccccc3c12 (stereo not shown) [Carvedilol]	14.5 ± 0.62

target: T3, mouse Mdr1a (Mus musculus, UniProt P21447); test: Bidirectional transport assay, efflux ratio in Abcb1KO-MDCKII mMDR1 cells; conditions: mouse, pH 7.4
Experimental: as §1

T3 sequence (P21447 whole entry): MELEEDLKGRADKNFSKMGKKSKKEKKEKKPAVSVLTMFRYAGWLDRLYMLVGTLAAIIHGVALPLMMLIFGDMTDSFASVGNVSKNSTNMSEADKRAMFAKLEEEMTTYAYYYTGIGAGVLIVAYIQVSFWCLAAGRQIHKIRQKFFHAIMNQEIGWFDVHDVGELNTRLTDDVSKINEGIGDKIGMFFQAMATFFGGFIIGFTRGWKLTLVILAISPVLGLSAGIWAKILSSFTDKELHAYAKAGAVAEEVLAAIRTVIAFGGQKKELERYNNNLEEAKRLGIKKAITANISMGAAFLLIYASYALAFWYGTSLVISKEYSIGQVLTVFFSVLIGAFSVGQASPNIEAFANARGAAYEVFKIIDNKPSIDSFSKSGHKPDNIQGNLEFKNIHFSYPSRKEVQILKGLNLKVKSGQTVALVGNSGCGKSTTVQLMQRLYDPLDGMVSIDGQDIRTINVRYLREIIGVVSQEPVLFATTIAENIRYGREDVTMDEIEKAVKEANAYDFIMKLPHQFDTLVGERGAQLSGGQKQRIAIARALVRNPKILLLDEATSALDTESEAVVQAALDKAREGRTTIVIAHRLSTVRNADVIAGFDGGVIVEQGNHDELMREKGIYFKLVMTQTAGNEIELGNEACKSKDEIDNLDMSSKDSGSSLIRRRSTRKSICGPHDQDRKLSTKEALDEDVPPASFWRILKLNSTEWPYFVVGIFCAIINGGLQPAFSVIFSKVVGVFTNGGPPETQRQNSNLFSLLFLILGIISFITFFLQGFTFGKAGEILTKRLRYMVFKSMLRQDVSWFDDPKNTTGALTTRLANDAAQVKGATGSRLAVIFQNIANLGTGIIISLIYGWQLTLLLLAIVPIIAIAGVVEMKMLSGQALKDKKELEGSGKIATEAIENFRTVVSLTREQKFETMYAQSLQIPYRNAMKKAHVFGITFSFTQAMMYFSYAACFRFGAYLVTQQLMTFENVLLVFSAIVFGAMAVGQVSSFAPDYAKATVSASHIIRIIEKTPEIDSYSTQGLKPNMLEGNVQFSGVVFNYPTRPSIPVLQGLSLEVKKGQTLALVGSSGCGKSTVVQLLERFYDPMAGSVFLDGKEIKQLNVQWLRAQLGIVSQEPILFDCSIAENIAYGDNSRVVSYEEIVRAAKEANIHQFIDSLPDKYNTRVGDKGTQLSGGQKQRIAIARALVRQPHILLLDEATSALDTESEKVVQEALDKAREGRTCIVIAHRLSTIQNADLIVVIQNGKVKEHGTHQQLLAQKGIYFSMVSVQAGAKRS

SMILES	efflux ratio at 120 min, 1 µM
COc1ccccc1OCCNCC(O)COc1cccc2[nH]c3ccccc3c12 (stereo not shown) [Carvedilol]	1.94 ± 0.21

target: T4, rat Mdr1a (Rattus norvegicus, UniProt Q6PSM0); test: Bidirectional transport assay, efflux ratio in Abcb1KO-MDCKII rMDR1 cells; conditions: rat, pH 7.4
Experimental: as §1

T4 sequence (Q6PSM0 1-1272): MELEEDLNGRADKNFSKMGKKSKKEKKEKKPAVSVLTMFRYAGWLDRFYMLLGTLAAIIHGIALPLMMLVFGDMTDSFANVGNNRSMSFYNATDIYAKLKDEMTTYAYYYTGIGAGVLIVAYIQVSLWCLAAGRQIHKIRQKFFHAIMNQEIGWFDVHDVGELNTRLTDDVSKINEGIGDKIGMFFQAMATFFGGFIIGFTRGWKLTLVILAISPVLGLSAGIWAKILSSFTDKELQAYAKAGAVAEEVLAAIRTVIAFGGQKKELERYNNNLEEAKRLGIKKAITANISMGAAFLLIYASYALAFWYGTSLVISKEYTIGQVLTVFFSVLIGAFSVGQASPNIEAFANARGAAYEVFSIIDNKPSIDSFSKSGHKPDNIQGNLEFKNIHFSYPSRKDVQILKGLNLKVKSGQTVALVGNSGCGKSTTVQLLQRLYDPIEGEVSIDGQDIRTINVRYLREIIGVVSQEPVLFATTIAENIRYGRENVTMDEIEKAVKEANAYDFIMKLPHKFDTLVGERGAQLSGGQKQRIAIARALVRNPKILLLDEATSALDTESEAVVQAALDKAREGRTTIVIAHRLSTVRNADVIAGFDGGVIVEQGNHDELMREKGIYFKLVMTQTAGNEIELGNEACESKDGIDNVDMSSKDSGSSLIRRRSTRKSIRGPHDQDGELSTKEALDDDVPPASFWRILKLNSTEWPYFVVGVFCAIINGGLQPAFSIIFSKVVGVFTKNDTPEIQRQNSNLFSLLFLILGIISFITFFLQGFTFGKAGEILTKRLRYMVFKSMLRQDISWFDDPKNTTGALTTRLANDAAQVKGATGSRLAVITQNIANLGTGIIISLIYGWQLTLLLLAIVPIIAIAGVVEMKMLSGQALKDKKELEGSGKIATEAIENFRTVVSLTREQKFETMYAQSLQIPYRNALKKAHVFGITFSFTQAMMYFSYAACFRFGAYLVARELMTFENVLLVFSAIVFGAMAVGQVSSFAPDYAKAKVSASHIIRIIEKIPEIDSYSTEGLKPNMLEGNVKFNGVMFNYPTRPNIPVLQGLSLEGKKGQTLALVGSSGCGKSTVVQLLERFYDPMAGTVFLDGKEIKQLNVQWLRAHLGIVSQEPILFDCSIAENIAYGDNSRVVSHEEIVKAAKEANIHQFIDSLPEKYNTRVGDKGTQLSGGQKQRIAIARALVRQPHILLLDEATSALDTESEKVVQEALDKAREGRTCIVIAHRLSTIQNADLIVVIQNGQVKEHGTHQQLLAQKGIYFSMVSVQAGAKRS

SMILES	efflux ratio at 120 min, 1 µM
COc1ccccc1OCCNCC(O)COc1cccc2[nH]c3ccccc3c12 (stereo not shown) [Carvedilol]	2.13 ± 0.08

system: not listed separately; test: Bidirectional transport assay, efflux ratio in Abcb1KO-MDCKII-Mock control cells; conditions: dog, MDCK, pH 7.4
Experimental: as §1

SMILES	efflux ratio at 120 min, 1 µM
COc1ccccc1OCCNCC(O)COc1cccc2[nH]c3ccccc3c12 (stereo not shown) [Carvedilol]	0.62 ± 0.04

target: T2, human MDR1; test: Inhibition of 3H-digoxin or 3H-quinidine bidirectional transport in hMDR1 cells; conditions: Inhibition of digoxin transport IC50±SD, hMDR1, probe 3H-digoxin 1 µM, 120 min; IC50 from ER

SMILES	IC50 [µM]
COC(=O)C1=C(C)NC(C)=C(C(=O)OC(C)C)C1c1cccc2nonc12 (stereo not shown) [Isradipine]	> 50
COc1ccccc1OCCNCC(O)COc1cccc2[nH]c3ccccc3c12 (stereo not shown) [Carvedilol]	19.1 ± 7.45

same assay, conditions: Inhibition of quinidine transport IC50±SD, hMDR1, probe 3H-quinidine 1 µM, 60 min; IC50 from ER

SMILES	IC50 [µM]
COC(=O)C1=C(C)NC(C)=C(C(=O)OC(C)C)C1c1cccc2nonc12 (stereo not shown) [Isradipine]	2.07 ± 1.28
COc1ccccc1OCCNCC(O)COc1cccc2[nH]c3ccccc3c12 (stereo not shown) [Carvedilol]	0.41 ± 0.24

target: T5, human BCRP (Homo sapiens, UniProt Q9UNQ0); test: Bidirectional transport assay, efflux ratio in MDCKII-BCRP cells; conditions: human, pH 7.4
T5 sequence (Q9UNQ0 1-655): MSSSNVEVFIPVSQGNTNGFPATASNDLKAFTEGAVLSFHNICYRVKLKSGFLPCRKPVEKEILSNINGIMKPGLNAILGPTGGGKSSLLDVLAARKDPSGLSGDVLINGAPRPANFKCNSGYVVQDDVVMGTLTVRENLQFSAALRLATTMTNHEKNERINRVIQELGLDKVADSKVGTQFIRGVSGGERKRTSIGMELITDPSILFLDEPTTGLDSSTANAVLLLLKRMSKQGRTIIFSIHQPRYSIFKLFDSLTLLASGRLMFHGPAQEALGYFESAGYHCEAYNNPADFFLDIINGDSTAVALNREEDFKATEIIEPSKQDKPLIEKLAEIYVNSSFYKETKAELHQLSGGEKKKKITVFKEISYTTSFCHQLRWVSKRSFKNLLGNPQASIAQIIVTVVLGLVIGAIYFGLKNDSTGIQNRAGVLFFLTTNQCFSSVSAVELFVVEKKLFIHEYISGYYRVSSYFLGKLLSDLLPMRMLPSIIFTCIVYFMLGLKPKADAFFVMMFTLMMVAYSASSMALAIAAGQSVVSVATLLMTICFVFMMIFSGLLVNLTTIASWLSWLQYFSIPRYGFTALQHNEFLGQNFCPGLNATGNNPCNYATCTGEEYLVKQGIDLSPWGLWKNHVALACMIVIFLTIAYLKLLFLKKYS
Experimental: as §1

SMILES	efflux ratio at 120 min, 1 µM
COc1ccccc1OCCNCC(O)COc1cccc2[nH]c3ccccc3c12 (stereo not shown) [Carvedilol]	2.38 ± 0.23

target: T1, cynomolgus monkey Mdr1; test: Bidirectional transport assay, efflux ratio in Abcb1KO-MDCKII cyMDR1 cells; conditions: cynomolgus monkey, pH 7.4
Experimental: as §1

SMILES	efflux ratio at 120 min, 1 µM
COc1ccccc1OCCNCC(O)COc1cccc2[nH]c3ccccc3c12 (stereo not shown) [Carvedilol]	1.12 ± 0.06

target: T4, rat Mdr1a; test: Inhibition of 3H-digoxin or 3H-quinidine bidirectional transport in rMDR1 cells; assay type: cell-based; parameters: rat Mdr1a (NM_133401.1); expressed in transfected cells; host or cells: Abcb1KO-MDCKII (canine kidney, endogenous Abcb1 knocked out), transduced, single-cell clone; conditions: Inhibition of digoxin transport IC50±SD, rMDR1, probe 3H-digoxin 1 µM, 120 min; IC50 from ER

SMILES	IC50 [µM]
COC(=O)C1=C(C)NC(C)=C(C(=O)OC(C)C)C1c1cccc2nonc12 (stereo not shown) [Isradipine]	15.2 ± 2.84
COCC(=O)O[C@]1(CCN(C)CCCc2nc3ccccc3[nH]2)CCc2cc(F)ccc2[C@@H]1C(C)C [Mibefradil]	7.42 ± 2.76
CC(C)(C)NC(=O)[C@@H]1C[C@@H]2CCCC[C@@H]2CN1C[C@@H](O)[C@H](Cc1ccccc1)NC(=O)[C@H](CC(N)=O)NC(=O)c1ccc2ccccc2n1 [Saquinavir]	25 ± 11.4
COc1ccccc1OCCNCC(O)COc1cccc2[nH]c3ccccc3c12 (stereo not shown) [Carvedilol]	4.22 ± 1
COc1cc2c(cc1OC)CN(CCc1ccc(NC(=O)c3cccc4c(=O)c5cccc(OC)c5[nH]c34)cc1)CC2 [Elacridar]	0.32 ± 0.15
O[C@@H](COc1cccc2ncccc12)CN1CCN([C@@H]2c3ccccc3[C@@H]3[C@H](c4ccccc42)C3(F)F)CC1 [Zosuquidar]	0.6 ± 0.29
CCOC(=O)C1=C(C)NC(C)=C(C(=O)OC)C1c1cccc(Cl)c1Cl (stereo not shown) [Felodipine]	> 100

same assay, conditions: Inhibition of quinidine transport IC50±SD, rMDR1, probe 3H-quinidine 1 µM, 30 min; IC50 from ER

SMILES	IC50 [µM]
COC(=O)C1=C(C)NC(C)=C(C(=O)OC(C)C)C1c1cccc2nonc12 (stereo not shown) [Isradipine]	13.6 ± 9.37
COCC(=O)O[C@]1(CCN(C)CCCc2nc3ccccc3[nH]2)CCc2cc(F)ccc2[C@@H]1C(C)C [Mibefradil]	1.11 ± 0.21
CC(C)(C)NC(=O)[C@@H]1C[C@@H]2CCCC[C@@H]2CN1C[C@@H](O)[C@H](Cc1ccccc1)NC(=O)[C@H](CC(N)=O)NC(=O)c1ccc2ccccc2n1 [Saquinavir]	12.3 ± 5.02
COc1ccccc1OCCNCC(O)COc1cccc2[nH]c3ccccc3c12 (stereo not shown) [Carvedilol]	1.01 ± 0.13
COc1cc2c(cc1OC)CN(CCc1ccc(NC(=O)c3cccc4c(=O)c5cccc(OC)c5[nH]c34)cc1)CC2 [Elacridar]	0.06
O[C@@H](COc1cccc2ncccc12)CN1CCN([C@@H]2c3ccccc3[C@@H]3[C@H](c4ccccc42)C3(F)F)CC1 [Zosuquidar]	0.57 ± 0.21
CCOC(=O)C1=C(C)NC(C)=C(C(=O)OC)C1c1cccc(Cl)c1Cl (stereo not shown) [Felodipine]	40.6 ± 7.71

target: T1, cynomolgus monkey Mdr1; test: Inhibition of 3H-digoxin or 3H-quinidine bidirectional transport in cyMDR1 cells; conditions: Inhibition of quinidine transport IC50±SD, cyMDR1, probe 3H-quinidine 0.1 µM, 60 min; IC50 from ER

SMILES	IC50 [µM]
COC(=O)C1=C(C)NC(C)=C(C(=O)OC(C)C)C1c1cccc2nonc12 (stereo not shown) [Isradipine]	19.3 ± 5.76
COCC(=O)O[C@]1(CCN(C)CCCc2nc3ccccc3[nH]2)CCc2cc(F)ccc2[C@@H]1C(C)C [Mibefradil]	3.61 ± 2.04
CC(C)(C)NC(=O)[C@@H]1C[C@@H]2CCCC[C@@H]2CN1C[C@@H](O)[C@H](Cc1ccccc1)NC(=O)[C@H](CC(N)=O)NC(=O)c1ccc2ccccc2n1 [Saquinavir]	20.7 ± 7.67
COc1ccccc1OCCNCC(O)COc1cccc2[nH]c3ccccc3c12 (stereo not shown) [Carvedilol]	1.02 ± 0.79
COc1cc2c(cc1OC)CN(CCc1ccc(NC(=O)c3cccc4c(=O)c5cccc(OC)c5[nH]c34)cc1)CC2 [Elacridar]	0.11 ± 0.08
O[C@@H](COc1cccc2ncccc12)CN1CCN([C@@H]2c3ccccc3[C@@H]3[C@H](c4ccccc42)C3(F)F)CC1 [Zosuquidar]	0.12 ± 0.09
CCOC(=O)C1=C(C)NC(C)=C(C(=O)OC)C1c1cccc(Cl)c1Cl (stereo not shown) [Felodipine]	50.7 ± 19.7

target: T3, mouse Mdr1a; test: Inhibition of 3H-digoxin or 3H-quinidine bidirectional transport in mMDR1 cells; assay type: cell-based; parameters: mouse Mdr1a (NM_011076.3); expressed in transfected cells; host or cells: Abcb1KO-MDCKII (canine kidney, endogenous Abcb1 knocked out), transduced, single-cell clone; conditions: Inhibition of digoxin transport IC50±SD, mMDR1, probe 3H-digoxin 1 µM, 120 min; IC50 from ER

SMILES	IC50 [µM]
COC(=O)C1=C(C)NC(C)=C(C(=O)OC(C)C)C1c1cccc2nonc12 (stereo not shown) [Isradipine]	5.28 ± 2.94
COCC(=O)O[C@]1(CCN(C)CCCc2nc3ccccc3[nH]2)CCc2cc(F)ccc2[C@@H]1C(C)C [Mibefradil]	7.15 ± 4.58
COc1ccccc1OCCNCC(O)COc1cccc2[nH]c3ccccc3c12 (stereo not shown) [Carvedilol]	2 ± 0.55
COc1cc2c(cc1OC)CN(CCc1ccc(NC(=O)c3cccc4c(=O)c5cccc(OC)c5[nH]c34)cc1)CC2 [Elacridar]	0.1 ± 0.07
O[C@@H](COc1cccc2ncccc12)CN1CCN([C@@H]2c3ccccc3[C@@H]3[C@H](c4ccccc42)C3(F)F)CC1 [Zosuquidar]	0.37 ± 0.13
CCOC(=O)C1=C(C)NC(C)=C(C(=O)OC)C1c1cccc(Cl)c1Cl (stereo not shown) [Felodipine]	28.6 ± 7.95

same assay, conditions: Inhibition of quinidine transport IC50±SD, mMDR1, probe 3H-quinidine 1 µM, 60 min; IC50 from ER

SMILES	IC50 [µM]
COC(=O)C1=C(C)NC(C)=C(C(=O)OC(C)C)C1c1cccc2nonc12 (stereo not shown) [Isradipine]	19.3 ± 3.75
COc1ccccc1OCCNCC(O)COc1cccc2[nH]c3ccccc3c12 (stereo not shown) [Carvedilol]	1.64 ± 0.9
COc1cc2c(cc1OC)CN(CCc1ccc(NC(=O)c3cccc4c(=O)c5cccc(OC)c5[nH]c34)cc1)CC2 [Elacridar]	0.2 ± 0.04
O[C@@H](COc1cccc2ncccc12)CN1CCN([C@@H]2c3ccccc3[C@@H]3[C@H](c4ccccc42)C3(F)F)CC1 [Zosuquidar]	0.49 ± 0.26
CCOC(=O)C1=C(C)NC(C)=C(C(=O)OC)C1c1cccc(Cl)c1Cl (stereo not shown) [Felodipine]	> 100
